Assay results as given in publication PMC6364417, “Kinase inhibitor library screening identifies synergistic drug combinations effective in sensitive and resistant melanoma cells” (Journal of Experimental & Clinical Cancer Research : CR, 2019).

Experiments:
Assay in all cases: Kinase inhibitor library screening, PrestoBlue cell viability, 1 or 10 μM, 72 h
IGR37 cells (parental) = tested on: IGR37 cells (parental)
A375 cells (parental) = tested on: A375 cells (parental)
501Mel cells (parental) = tested on: 501Mel cells (parental)
In short: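 Kinase inhibitors added at two fixed concentrations; 72 h exposure; PrestoBlue readout; % viability vs untreated; n ≥ 2 per line.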

[1] = tested on: 501Mel-GP cells (Dabrafenib-resistant)
[2] = tested on: 501Mel-XP cells (Vemurafenib-resistant)
[3] = tested on: A375-GP cells (Dabrafenib-resistant)
[4] = tested on: IGR37-XP cells (Vemurafenib-resistant)
[5] = tested on: A375-XP cells (Vemurafenib-resistant)
[6] = tested on: IGR37-GP cells (Dabrafenib-resistant)

SMILES | cell viability (kinase inhibitor library screening) (IGR37 cells (parental); IGR37 Parental, 1μΜ, 72 h) [%] | cell viability (kinase inhibitor library screening) (IGR37 cells (parental); IGR37 Parental, 10μΜ, 72 h) [%] | cell viability (kinase inhibitor library screening) (A375 cells (parental); A375 Parental, 10μΜ, 72 h) [%] | cell viability (kinase inhibitor library screening) (A375 cells (parental); A375 Parental, 1μΜ, 72 h) [%] | cell viability (kinase inhibitor library screening) (501Mel cells (parental); 501Mel Parental, 1μΜ, 72 h) [%] | cell viability (kinase inhibitor library screening) (501Mel cells (parental); 501Mel Parental, 10μΜ, 72 h) [%] | cell viability (kinase inhibitor library screening) ([1]; 501Mel GP, 1μΜ, 72 h) [%] | cell viability (kinase inhibitor library screening) ([1]; 501Mel GP, 10μΜ, 72 h) [%] | cell viability (kinase inhibitor library screening) ([2]; 501Mel XP, 1μΜ, 72 h) [%] | cell viability (kinase inhibitor library screening) ([2]; 501Mel XP, 10μΜ, 72 h) [%] | cell viability (kinase inhibitor library screening) ([3]; A375 GP, 1μΜ, 72 h) [%] | cell viability (kinase inhibitor library screening) ([3]; A375 GP, 10μΜ, 72 h) [%] | cell viability (kinase inhibitor library screening) ([4]; IGR37 XP, 1μΜ, 72 h) [%] | cell viability (kinase inhibitor library screening) ([4]; IGR37 XP, 10μΜ, 72 h) [%] | cell viability (kinase inhibitor library screening) ([5]; A375 XP, 1μΜ, 72 h) [%] | cell viability (kinase inhibitor library screening) ([5]; A375 XP, 10μΜ, 72 h) [%] | cell viability (kinase inhibitor library screening) ([6]; IGR37 GP, 1μΜ, 72 h) [%] | cell viability (kinase inhibitor library screening) ([6]; IGR37 GP, 10μΜ, 72 h) [%] | further results
O=C(O)c1ccc(Nc2ncc3c(n2)-c2ccc(Cl)cc2C(c2c(F)cccc2F)=NC3)cc1 [MLN8054] | 98.2 | 64.8 | 41.6 | 66.5 | 86.3 | 77.0 | 86.0 | 65.6 | 74.5 | 59.4 | 70.2 | 45.2 | 94.1 | 42.0 | 75.7 | 52.2 | 94.0 | 66.7 | –
COc1cc2c(Nc3ccc(NC(=O)c4ccccc4)cc3)ncnc2cc1OCCCN1CCOCC1 [ZM-447439] | 103.7 | 54.6 | 56.3 | 76.7 | 90.8 | 7.6 | 104.5 | 2.3 | 90.5 | -0.26 | 79.5 | 52.0 | 95.9 | 24.7 | 88.7 | 65.2 | 96.5 | 69.7 | –
COC(=O)Nc1ccc(-c2nc(N3CCOCC3)c3cnn(C4CCN(Cc5cccnc5)CC4)c3n2)cc1 [WYE-687] | – | – | – | – | – | – | – | – | – | – | – | – | – | – | – | – | – | – | Cell viability in kinase inhibitor library screening, IGR37 Parental, 1μΜ (IGR37 cells (parental); IGR37 Parental, 1μΜ, 72 h, in %): 75.9; Cell viability in kinase inhibitor library screening, IGR37 Parental, 10μΜ (IGR37 cells (parental); IGR37 Parental, 10μΜ, 72 h, in %): 26.2; Cell viability in kinase inhibitor library screening, A375 Parental, 10μΜ (A375 cells (parental); A375 Parental, 10μΜ, 72 h): 21.5; Cell viability in kinase inhibitor library screening, A375 Parental, 1μΜ (A375 cells (parental); A375 Parental, 1μΜ, 72 h): 74.1; Cell viability in kinase inhibitor library screening, 501Mel Parental, 1μΜ (501Mel cells (parental); 501Mel Parental, 1μΜ, 72 h, in %): 65.3; Cell viability in kinase inhibitor library screening, 501Mel Parental, 10μΜ (501Mel cells (parental); 501Mel Parental, 10μΜ, 72 h, in %): 9.6; Cell viability in kinase inhibitor library screening, 501Mel GP, 1μΜ ([1]; 501Mel GP, 1μΜ, 72 h, in %): 55.7; Cell viability in kinase inhibitor library screening, 501Mel GP, 10μΜ ([1]; 501Mel GP, 10μΜ, 72 h, in %): 10.7; Cell viability in kinase inhibitor library screening, 501Mel XP, 1μΜ ([2]; 501Mel XP, 1μΜ, 72 h, in %): 83.5; Cell viability in kinase inhibitor library screening, 501Mel XP, 10μΜ ([2]; 501Mel XP, 10μΜ, 72 h, in %): 7.5; Cell viability in kinase inhibitor library screening, A375 GP, 1μΜ ([3]; A375 GP, 1μΜ, 72 h): 67.7; Cell viability in kinase inhibitor library screening, A375 GP, 10μΜ ([3]; A375 GP, 10μΜ, 72 h): 19.9; Cell viability in kinase inhibitor library screening, IGR37 XP, 10μΜ ([4]; IGR37 XP, 10μΜ, 72 h): 7%; Cell viability in kinase inhibitor library screening, IGR37 XP, 1μΜ ([4]; IGR37 XP, 1μΜ, 72 h, in %): 62.5; Cell viability in kinase inhibitor library screening, A375 XP, 1μΜ ([5]; A375 XP, 1μΜ, 72 h): 59.8; Cell viability in kinase inhibitor library screening, A375 XP, 10μΜ ([5]; A375 XP, 10μΜ, 72 h): 19.2; Cell viability in kinase inhibitor library screening, IGR37 GP, 10μΜ ([6]; IGR37 GP, 10μΜ, 72 h): 24.9%; Cell viability in kinase inhibitor library screening, IGR37 GP, 1μΜ ([6]; IGR37 GP, 1μΜ, 72 h, in %): 77.7
Cl.Cl.Clc1ccc(Nc2nnc(Cc3ccncc3)c3ccccc23)cc1 [Vatalanib dihydrochloride (PTK787)] | – | – | – | – | – | – | – | – | – | – | – | – | – | – | – | – | – | – | cell viability (kinase inhibitor library screening) (IGR37 cells (parental); IGR37 Parental, 1μΜ, in %): 118.3; cell viability (kinase inhibitor library screening) (IGR37 cells (parental); IGR37 Parental, 10μΜ, in %): 92.4; cell viability (kinase inhibitor library screening) (A375 cells (parental); A375 Parental, 1μΜ, in %): 105.1; cell viability (kinase inhibitor library screening) (A375 cells (parental); A375 Parental, 10μΜ, in %): 92.8; cell viability (kinase inhibitor library screening) (501Mel cells (parental); 501Mel Parental, 1μΜ, in %): 98.6; cell viability (kinase inhibitor library screening) (501Mel cells (parental); 501Mel Parental, 10μΜ, in %): 93.0; cell viability (kinase inhibitor library screening) ([1]; 501Mel GP, 1μΜ, in %): 106.0; cell viability (kinase inhibitor library screening) ([1]; 501Mel GP, 10μΜ, in %): 81.7; cell viability (kinase inhibitor library screening) ([2]; 501Mel XP, 1μΜ, in %): 94.6; cell viability (kinase inhibitor library screening) ([2]; 501Mel XP, 10μΜ, in %): 73.0; cell viability (kinase inhibitor library screening) ([3]; A375 GP, 1μΜ, in %): 96.3; cell viability (kinase inhibitor library screening) ([3]; A375 GP, 10μΜ, in %): 92.3; cell viability (kinase inhibitor library screening) ([4]; IGR37 XP, 10μΜ, in %): 58.7; cell viability (kinase inhibitor library screening) ([5]; A375 XP, 10μΜ, in %): 99.5; cell viability (kinase inhibitor library screening) ([6]; IGR37 GP, 1μΜ, in %): 95.0; cell viability (kinase inhibitor library screening) ([6]; IGR37 GP, 10μΜ, in %): 83.6
CCn1c(-c2nonc2N)nc2c(C#CC(C)(C)O)ncc(OC[C@H]3CCCNC3)c21 [GSK690693] | 104.5 | 68.7 | 99.2 | – | 87.0 | 43.2 | 87.1 | 33.9 | 66.4 | 17.0 | 99.1 | 92.8 | 94.0 | 18.7 | 96.1 | 87.9 | 93.2 | 65.9 | –
O=c1sn(-c2cccc3ccccc23)c(=O)n1Cc1ccccc1 [Tideglusib] | – | – | – | – | – | – | – | – | – | – | – | – | – | – | – | – | – | – | viability at 1 µM (IGR37 cells (parental); Homo sapiens, IGR-37, 72 h, read-out: cell viability, IGR37 Parental, 1μΜ): 103%; viability at 10 µM (IGR37 cells (parental); Homo sapiens, IGR-37, 72 h, read-out: cell viability, IGR37 Parental, 10μΜ): 99.7%; viability at 1 µM (A375 cells (parental); Homo sapiens, A-375, 72 h, read-out: cell viability, A375 Parental, 1μΜ): 95.4%; viability at 10 µM (A375 cells (parental); Homo sapiens, A-375, 72 h, read-out: cell viability, A375 Parental, 10μΜ): 97.4%; viability at 1 µM (501Mel cells (parental); Homo sapiens, 72 h, read-out: cell viability, 501Mel Parental, 1μΜ): 110%; viability at 10 µM (501Mel cells (parental); Homo sapiens, 72 h, read-out: cell viability, 501Mel Parental, 10μΜ): 105%; viability at 1 µM ([1]; Homo sapiens, 72 h, read-out: cell viability, 501Mel GP, 1μΜ): 102%; viability at 10 µM ([1]; Homo sapiens, 72 h, read-out: cell viability, 501Mel GP, 10μΜ): 91.6%; viability at 1 µM ([2]; Homo sapiens, 72 h, read-out: cell viability, 501Mel XP, 1μΜ): 98.8%; viability at 10 µM ([2]; Homo sapiens, 72 h, read-out: cell viability, 501Mel XP, 10μΜ): 90.4%; viability at 1 µM ([3]; Homo sapiens, A-375, 72 h, read-out: cell viability, A375 GP, 1μΜ): 98.4%; viability at 10 µM ([3]; Homo sapiens, A-375, 72 h, read-out: cell viability, A375 GP, 10μΜ): 97.5%; viability at 1 µM ([4]; Homo sapiens, IGR-37, 72 h, read-out: cell viability, IGR37 XP, 1μΜ): 96.4%; viability at 10 µM ([4]; Homo sapiens, IGR-37, 72 h, read-out: cell viability, IGR37 XP, 10μΜ): 74.1%; viability at 1 µM ([5]; Homo sapiens, A-375, 72 h, read-out: cell viability, A375 XP, 1μΜ): 105%; viability at 10 µM ([5]; Homo sapiens, A-375, 72 h, read-out: cell viability, A375 XP, 10μΜ): 108%; viability at 1 µM ([6]; Homo sapiens, IGR-37, 72 h, read-out: cell viability, IGR37 GP, 1μΜ): 94.6%; viability at 10 µM ([6]; Homo sapiens, IGR-37, 72 h, read-out: cell viability, IGR37 GP, 10μΜ): 95.9%
